The values below are quoted from earlier work in patent publication US6344433B1, “Long-acting disinfectant and its preparation method” (priority 1999, dated 2002).

For this data set the following is noted: crystal powder.

Structures are written as SMILES.

With `Oc1cc(Cl)ccc1Oc1ccc(Cl)cc1Cl` [HD244, 2,4,4′-trichloro-2′-hydroxy diphenyl ether], the solubility in water entry is reported as “hardly soluble in water”.
